Laboratory results: patent US5428036A (H. Lundbeck A/S, priority 1990, dated 1995)

Columns and labels:
[1] = target: T1, serotonin S2 (5-HT2) receptors (Rattus norvegicus, UniProt P14842); assay: Inhibition of 3H-ketanserin binding to serotonin S2 (5-HT2) receptors in rat cortex in vitro; details: for IC50: 0.5 nM 3H-ketanserin, rat cortex membranes, 37° C., 30 min
T1 construct: from tissue; host or cells: cerebral cortex membranes of male Wistar (Mol:Wist) rats
Protocol: (§1) The prodrugs of the invention were tested in vitro for 5-HT2 receptor affinity (^3 H-ketanserin binding) and for 5-HT2 antagonistic effect in vivo (antagonism of quipazine induced head twiches).
Inhibition of ^3 H-ketanserin Binding to Serotonin S2 (5-HT2)Receptors in Rat Cortex in vitro
By this method the inhibition by drugs of the binding of ^3 H-Ketanserin (0,5 nM) to serotonin S2 (5-HT2) receptors in membranes from rat corex is determined in vitro. Method in Hyttel, Pharmacol. & Toxicol, 61, 126-129 1987.
Male Wistar (Mol:Wist) rats are sacrificed and cortical tissue is dissected and weighed. The tissue is homogenized (Ultra Turrax, 10 sec.) in 10 ml of ice-cold 50 mM tris buffer pH 7.7 (at 25° C.). The centrifuge glass ware used in this step has been rinsed by sonication for 10 min. in ethanol. The homogenate is centrifuged twice at 20,000 g for 10 min. at 4° C. with rehomogenization of the pellet in 10 ml ice-cold buffer. The final pellet is homogenized in 500 vol (w/v) ice-cold buffer. Incubation tubes kept on ice in triplicate receive 100 μl of drug solution in water (or water for total binding) and […] of tissue suspension (final tissue content corresponds to 4 mg original tissue). The binding experiment is initiated by addition of 100 μl of ^3 H-Ketanserin (final concentration 0.5 nM) and by placing the tubes in a 37° C. water bath. After incubation for 30 min. the samples are filtered under vacuum (0-50 mBar) through Whatman GF/F filters (25 mm). The tubes are rinsed with 5 ml ice-cold buffer which are then poured on the filters. Thereafter, the filters are washed with 2×5 ml of buffer. The filters are placed in counting vials and 4 ml of appropriate scintillation fluid (e.g. Picofluor™ 15) are added. After shaking for 1 h and storage 2 hrs in the dark the content of radioactivity is determined by liquid scintillation counting. Specific binding is obtained by subtracting the nonspecific binding in the presence of 1 μM mianserin. For determination of the inhibition of binding five concentrations of drugs covering 3 decades are used.
The IC50 value is determined as the concentration at which the binding is 50% of the total binding in control samples minus the nonspecific binding in the presence of 1 μM mianserin.
^3 H-Ketanserin=[ethylene-^3 H]-ketanserin hydrochloride from New England Nuclear, specific activity 60-80 Ci/mmol.

[2] = Sertindole concentration in dog serum after i.m. depot dosing in Viscoleo (HPLC); format: in vivo, Beagle dogs; details: i.m. depot formulation in dogs; FIG. 1
Protocol: The depot effects of the compounds of the invention were determined as described in the following example:
Seven Beagle dogs were used. One male and one female dog were used for each preparation exept for 1a where only one female dog was used. The compounds were dissolved in Viscoleo®. One ml Viscoleo® equivalent 1 kg dog. The dogs were dosed i.m. approx. 5 ml in each thigh.
Blood samples were drawn at 1,2, 4, 8, and 24 hours after dosing, and 2, 4, 7, 10, and 14 days after dosing.
The serum samples were analyzed by HPLC using a system consisting of a Spherisorb S5W column (25 cm×4.6 mm) and a Hewlett Packard HP 1090 chromatograph with a HP 1050 UV-absorbance detector with a measuring wavelength of 254 nm. Elution was performed with n-heptane/2-propanol/conc. ammonia/water in the ratio 100/18.4/0.5/0.2, v/v as eluent at ambient temperature with a pressure of approximately 70 bar and a flow rate of 1 ml/min.

5-HT2 = target: T2, 5-HT2 (Rattus norvegicus, UniProt P14842); assay: Quipazine inhibition (antagonism of quipazine induced head twitches in rats); format: in vivo; details: for ED50: po, p.o. 24 hrs before quipazine (6.8 mg/kg, s.c.), head twitches, rat
T2 construct: Four rats, male Wistar (Mol:Wist) SPF rats, are used at each dose level; from tissue; host or cells: living male Wistar (Mol:Wist) SPF rats; receptor endogenous to the animal
Protocol: as §1
Quipazine is a 5-HT2 agonist, which induces head twitches in rats. The test is a test for 5-HT2 -antagonistic effect measuring the ability to inhibit head twitches. The method and test results for some reference substances are published by Arnt et al. (Drug Dev. Res., 16, 59-70, 1989).
Test substance is given p.o. 24 hrs before quipazine administration (6.8 mg/kg, s.c., dimaleate). Four rats, male Wistar (Mol:Wist) SPF rats, are used at each dose level. A control group is included each test day. After quipazine administration the rats are individually placed in the observation cages and head twitches are counted in an observation period of 10 min. 30-40 min. after injection of quipazine.
Total number of head twitches in each group are calculated and the result for each dose is expressed as percent of the response in the control group. ED50 values are calculated by log-probit analysis. The test must be repeated if the average number of head twitches is lower than 9 in the control group.

T1 sequence (P14842 whole entry): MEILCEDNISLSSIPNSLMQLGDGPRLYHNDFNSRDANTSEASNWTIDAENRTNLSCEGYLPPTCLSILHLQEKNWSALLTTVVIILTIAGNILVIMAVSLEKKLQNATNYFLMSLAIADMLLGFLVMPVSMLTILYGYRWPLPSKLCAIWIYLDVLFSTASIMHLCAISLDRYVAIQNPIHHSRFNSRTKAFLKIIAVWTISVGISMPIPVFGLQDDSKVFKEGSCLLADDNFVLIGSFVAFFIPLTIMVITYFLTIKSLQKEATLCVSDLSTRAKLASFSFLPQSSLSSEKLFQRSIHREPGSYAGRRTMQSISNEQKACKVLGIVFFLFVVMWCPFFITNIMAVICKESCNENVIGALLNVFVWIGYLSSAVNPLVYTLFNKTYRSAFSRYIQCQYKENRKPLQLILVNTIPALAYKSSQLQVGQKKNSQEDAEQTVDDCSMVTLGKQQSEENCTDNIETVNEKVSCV
T2 sequence (P14842 whole entry): as above

Row | Serotonin S2 (5-HT2) antagonism in vitro ([1]; in vitro, statement in words) | Serotonin S2 (5-HT2) antagonism in vivo (5-HT2; in vivo, statement in words) | SMILES | IC50 [1] [nM] | decomposition to sertindole after injection of a depot formulation [2] | ED50 (5-HT2) [µmol/kg]
1 | – | – | CC(=O)N1CCN(CCN2CCC(c3cn(-c4ccc(F)cc4)c4ccc(Cl)cc34)CC2)C1=O [Compound 1a] | 1.2 | decompose to sertindole after injection of a depot formulation | 0.029
2 | – | – | CCCCCCCCCC(=O)N1CCN(CCN2CCC(c3cn(-c4ccc(F)cc4)c4ccc(Cl)cc34)CC2)C1=O [Compound 1b, 5-chloro-3-[1-[2-(3-decanoyl-2-imidazolidinon-1-yl)ethyl]-4-piperidyl]-1-(4-fluorophenyl)-1H-indole] | 57 | – | 0.09
3 | – | – | CCCCCCCCCCCCCCCC(=O)N1CCN(CCN2CCC(c3cn(-c4ccc(F)cc4)c4ccc(Cl)cc34)CC2)C1=O [Compound 1e] | 47 | – | 0.77
4 | – | – | O=C(c1ccccc1)N1CCN(CCN2CCC(c3cn(-c4ccc(F)cc4)c4ccc(Cl)cc34)CC2)C1=O [Compound 1f, 3-[1-[2-(3-benzoyl-2-imidazolidinon-1-yl)ethyl]-4-piperidyl]-5-chloro-1-(4-fluorophenyl)-1H-indole] | 9.3 | – | 0.05
5 | – | – | CCCCCCCC/C=C\CCCCCCCC(=O)N1CCN(CCN2CCC(c3cn(-c4ccc(F)cc4)c4ccc(Cl)cc34)CC2)C1=O [Compound 2a] | 260 | – | 0.55
6 | – | – | CN(C)C(=O)N1CCN(CCN2CCC(c3cn(-c4ccc(F)cc4)c4ccc(Cl)cc34)CC2)C1=O [Compound 4a, 5-Chloro-3-[1-[2-(3-dimethylcarbamyl-2-imidazolidinon-1-yl)ethyl]-4-piperidyl]-1-(4-fluorophenyl)-^1 H-indole] | 0.9 | – | 0.24
7 | – | – | CCCCCCCCCCOC(=O)N1CCN(CCN2CCC(c3cn(-c4ccc(F)cc4)c4ccc(Cl)cc34)CC2)C1=O [Compound 4d, 5-chloro-3-[1-[2-[3-(1-decyl)oxycarbonyl-2-imidazolidinon-1-yl]ethyl]-4-piperidyl]-1-(4-fluorophenyl)-1H-indole] | 13 | – | 1.1
8 | – | – | O=C1N(CO)CCN1CCN1CCC(c2cn(-c3ccc(F)cc3)c3ccc(Cl)cc23)CC1 [Compound 5a, 5-Chloro-1-(4-fluorophenyl)-3-[1-[2-(3-hydroxymethyl-2-imidazolidinon-1-yl)ethyl]-4-piperidyl]-1H-indole] | 0.47 | – | 0.037
9 | – | – | O=C1N(CCN2CCC(c3cn(-c4ccc(F)cc4)c4ccc(Cl)cc34)CC2)CCN1CN1CCOCC1 [Compound 6a, 5-Chloro-1-(4-fluorophenyl)-3-[1-[2-[3-(1-morpholinomethyl)-2-imidazolidinon-1-yl]ethyl]-4-piperidyl]-1H-indole] | 0.97 | – | 0.079
10 | – | – | CN(C)CN1CCN(CCN2CCC(c3cn(-c4ccc(F)cc4)c4ccc(Cl)cc34)CC2)C1=O [Compound 6b, 5-chloro-3-[1-[2-(3-dimethylaminomethyl-2-imidazolidinon-1-yl)ethyl]-4-piperidyl]-1-(4-fluorophenyl)-1H-indole] | 0.6 | – | –
11 | – | – | CCOCN1CCN(CCN2CCC(c3cn(-c4ccc(F)cc4)c4ccc(Cl)cc34)CC2)C1=O [Compound 7a, 5-Chloro-3-[1-[2-(3-ethoxymethyl-2-imidazolidinon-1-yl)ethyl]-4-piperidyl]-1-(4-fluorophenyl)-1H-indole] | 1.2 | – | 0.081
12 | – | – | CCCCCCCCCCOCN1CCN(CCN2CCC(c3cn(-c4ccc(F)cc4)c4ccc(Cl)cc34)CC2)C1=O [Compound 7d] | 49 | – | 0.15
13 | – | – | CC(C)c1ccc(C(=O)N2CCN(CCN3CCC(c4cn(-c5ccc(F)cc5)c5ccc(Cl)cc45)CC3)C2=O)cc1 [Compound 8a, 5-Chloro-1-(4-fluorophenyl)-3-[1-[2-[3-(4-isopropylbenzoyl)-2-imidazolidinon-1-yl]ethyl]-4-piperidyl]-1H-indole] | 20 | – | 0.12
14 | – | – | CC(=O)Oc1ccccc1C(=O)N1CCN(CCN2CCC(c3cn(-c4ccc(F)cc4)c4ccc(Cl)cc34)CC2)C1=O [Compound 8c] | 24 | – | 0.057
15 | – | – | CCCC(=O)N1CCN(CCN2CCC(c3cn(-c4ccc(F)cc4)c4ccc(Cl)cc34)CC2)C1=O [Compound 8d, 3-[1-[2-(3-butanoyl-2-imidazolidinon-1-yl)ethyl]-4-piperidyl]-5-chloro-1(4-fluorophenyl)-1H-indole] | 5.6 | – | 0.014
16 | – | – | CCCCCC(=O)N1CCN(CCN2CCC(c3cn(-c4ccc(F)cc4)c4ccc(Cl)cc34)CC2)C1=O [Compound 8e, 5-chloro-1-(4-fluorophenyl)-3-[1-[2-(3-hexanoyl-2-imidazolidinon-1-yl)ethyl]-4-piperidyl]-1H-indole] | 38 | – | 0.039
17 | – | – | CCCCCCCC(=O)N1CCN(CCN2CCC(c3cn(-c4ccc(F)cc4)c4ccc(Cl)cc34)CC2)C1=O [Compound 8f, 5-chloro-1-(4-fluorophenyl)-3-[1-[2-(3-octanoyl-2-imidazolidinon-1-yl)ethyl]-4-piperidyl]-1H-indole] | 140 | – | 0.092
18 | very potent | very potent | O=C1NCCN1CCN1CCC(c2cn(-c3ccc(F)cc3)c3ccc(Cl)cc23)CC1 [sertindole, 5-chloro-1-(4-fluorophenyl)-3-[1-[2-(2-imidazolidinon-1-yl)ethyl]-4-piperidyl]-1H-indole, reference compound] | – | – | –
